Experimental data taken from ChEMBL document CHEMBL1129313, “Oxidation chemistry of (-)-norepinephrine in the presence of L-cysteine” (J Med Chem, 1996).
Active and inactive are the calls of the source. The calls are words filed in the database; no cut-off is given here.

Columns and labels:
Mus musculus [1] = experiment: In vivo behavioral response evoked when a dose of 100 microg injected into mice under light ether anesthesia; No response; assay type: functional, organism-based
Mus musculus [2] = experiment: In vivo toxic dose of injected compound at a dose of 5 to 100 ug at which 50% of mice died within 1 hr of treatment; assay type: ADME, organism-based
Mus musculus [3] = experiment: In vivo toxic dose of injected compound at a dose of 10 to 100 ug at which 50% of mice died within 1 hr of treatment; assay type: ADME, organism-based

Row | SMILES | Activity (Mus musculus [1]) | also measured
1 | NCC(O)c1cc(SCC(N)C(=O)O)c(O)c2c1SCC(C(=O)O)N2 (stereo unspecified) | inactive | –
2 | NCC(O)c1c2c(c(O)c(SCC(N)C(=O)O)c1SCC(N)C(=O)O)NC(C(=O)O)CS2 (stereo unspecified) | inactive | –
3 | NCC(O)c1cc(O)c(O)c(SCC(N)C(=O)O)c1 (stereo unspecified) | inactive | –
4 | NCC(O)c1cc(SCC(N)C(=O)O)c(O)c(O)c1SCC(N)C(=O)O (stereo unspecified) | inactive | –
5 | NCC(O)c1cc(O)c2c(c1)SCC(C(=O)O)N2 (stereo unspecified) | – | LD50 (Mus musculus [2]): 17.8 µg
6 | NCC(O)c1ccc(O)c2c1SCC(C(=O)O)N2 (stereo unspecified) | – | LD50 (Mus musculus [3]): 23.4 µg
